Reference: patent US12371454B2, “Cyclic peptide compound having Kras inhibitory action” (priority 2019, dated 2025)
Starred links: 1 amine or outer side, 2 acyl side, 3 side chain; linkers in the order of their positions; H or OH if unused. Positions of bridges follow the written chain, without caps; N, C: chain ends. Non-standard residues stand in square brackets, D forms with d. Residues, ends and D or L forms follow the SMILES beside them. *: point of attachment. hPhe(3-Cl-4-CF3) = N[C@@H](CCc1ccc(C(F)(F)F)c(Cl)c1)C(=O)O; NMePhe(4-CF3) = CN[C@@H](Cc1ccc(C(F)(F)F)cc1)C(=O)O; hPhe(4-CF3) = N[C@@H](CCc1ccc(C(F)(F)F)cc1)C(=O)O; NMePhe(4-Cl) = CN[C@@H](Cc1ccc(Cl)cc1)C(=O)O; NMePhe(2-Cl) = CN[C@@H](Cc1ccccc1Cl)C(=O)O; NMedβ3hAla = C[C@H](CC(=O)[*:2])N(C)[*:1]; NMeAla(cPent) = CN[C@@H](CC1CCCC1)C(=O)O; X79 = CC(C)CCOC[C@H](CC(=O)[*:2])N[*:1]; NMeGly(cPent) = CN[C@H](C(=O)O)C1CCCC1; Pro(4,4-F2) = O=C(O)[C@@H]1CC(F)(F)CN1; NMeCha = CN[C@@H](CC1CCCCC1)C(=O)O; NMeChg = CN[C@H](C(=O)O)C1CCCCC1; NMeF = CN[C@@H](Cc1ccccc1)C(=O)O; NMeI = CC[C@H](C)[C@H](NC)C(=O)O; NMeD = CN[C@@H](CC(=O)O)C(=O)O; CH2CONHtBu = CC(C)(C)NC(=O)C*; NMeL = CN[C@@H](CC(C)C)C(=O)O; NMeV = CN[C@H](C(=O)O)C(C)C; d(β3hA) = C[C@@H](N)CC(=O)O; NMeS = CN[C@@H](CO)C(=O)O; NMeA = CN[C@@H](C)C(=O)O; Piperidide = C1CCN(*)CC1; Ac5c = NC1(C(=O)O)CCCC1; Aze = O=C(O)[C@@H]1CCN1; Aib = CC(C)(N)C(=O)O; βAla = NCCC(=O)O; Sar = CNCC(=O)O

The compounds below were run against T1, Kras and SOS1 (biotin-tagged human Kras loaded with GDP, His-tagged human SOS1) (Homo sapiens, UniProt P01116, G12D) (assay: Protein-protein interaction inhibition between Kras and SOS1 (KrasGl2D-SOS PPI) using AlphaScreen). Settings: AlphaScreen; biotin-tagged human Kras loaded with GDP, His-tagged human SOS1; read-out: KRAS G12D-SOS PPI IC50.
T1 construct: made in house; host or cells: E. coli (stated for Kras only)
T1 sequence (P01116 1-188 isoform P01116-2 G12D): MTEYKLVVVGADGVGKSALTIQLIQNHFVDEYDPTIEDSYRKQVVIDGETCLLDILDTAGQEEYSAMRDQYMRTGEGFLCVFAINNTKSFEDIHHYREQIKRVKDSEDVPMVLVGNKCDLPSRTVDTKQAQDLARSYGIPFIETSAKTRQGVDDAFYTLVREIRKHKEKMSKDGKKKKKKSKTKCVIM
Type: binding
Procedure, shortened: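 Binding between SOS1 and Kras is detected as bead-proximity luminescence: illuminate Ni-conjugated donors (680 nm), collect 520-620 nm emission from streptavidin-conjugated acceptors; Kras carries biotin and GDP loaded after purification, SOS1 carries a His tag.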
`CC[C@H](C)[C@@H]1NC(=O)[C@H](CC(C)C)N(C)C(=O)C[C@@H](C)N(C)C(=O)[C@H](CC2CCCC2)N(C)C(=O)C2(CCCC2)NC(=O)[C@@H]2CCCN2C(=O)[C@H](CCc2ccc(C(F)(F)F)c(Cl)c2)NC(=O)CN(C)C(=O)[C@H](CC2CCCCC2)N(C)C(=O)CN(C)C(=O)CN(C)C1=O` [Compound 991] (cyclo([Ac5c][NMeAla(cPent)][NMedβ3hAla][NMeL]I[Sar][Sar][NMeCha][Sar][hPhe(3-Cl-4-CF3)]P)) gave an IC50 of 76 nM. Compound `CC[C@H](C)[C@@H]1NC(=O)[C@H](CC(C)C)N(C)C(=O)C[C@@H](COCCC(C)C)NC(=O)[C@H](C(C)C)N(C)C(=O)C2(CCCC2)NC(=O)[C@@H]2CCCN2C(=O)[C@H](CCc2ccc(C(F)(F)F)c(Cl)c2)NC(=O)CN(C)C(=O)[C@H](CC2CCCCC2)N(C)C(=O)CN(C)C(=O)CN(C)C1=O` [Compound 992] (cyclo([Ac5c][NMeV][X79][NMeL]I[Sar][Sar][NMeCha][Sar][hPhe(3-Cl-4-CF3)]P)) has an IC50 of 180 nM. `CC[C@H](C)[C@@H]1NC(=O)[C@H](CC(C)C)N(C)C(=O)C[C@@H](C(=O)N(C)C)N(C)C(=O)[C@H](C2CCCC2)N(C)C(=O)[C@H](C)NC(=O)[C@H](C)N(C)C(=O)[C@H](CCc2ccc(C(F)(F)F)c(Cl)c2)NC(=O)CN(C)C(=O)[C@H](CC2CCCCC2)N(C)C(=O)[C@@H]2CCN2C(=O)[C@H](C)N(C)C1=O` [Compound 993] ([NMeL]I[NMeA][Aze][NMeCha][Sar][hPhe(3-Cl-4-CF3)][NMeA]A[NMeGly(cPent)][NMeD]-NMe2; lactam N-11) was tested, and the IC50 was 16 nM. In the case of `CC[C@H](C)[C@@H]1NC(=O)[C@H](C)N(C)C(=O)C[C@@H](C)NC(=O)[C@H](C(C)C)N(C)C(=O)[C@H](Cc2ccccc2)N(C)C(=O)[C@H](CC(C)C)N(C)C(=O)[C@H](CCc2ccc(C(F)(F)F)c(Cl)c2)NC(=O)CN(C)C(=O)[C@H](Cc2ccc(Cl)cc2)N(C)C(=O)[C@@H]2CCN2C(=O)CN(C)C1=O` [Compound 994] (cyclo([Aze][NMePhe(4-Cl)][Sar][hPhe(3-Cl-4-CF3)][NMeL][NMeF][NMeV][d(β3hA)][NMeA]I[Sar])), the IC50 is reported as 11 nM. In the case of `CC[C@H](C)[C@@H]1NC(=O)[C@H](CC(C)C)N(C)C(=O)C[C@@H](C(=O)N2CCCCC2)N(C)C(=O)[C@H](C(C)C)N(C)C(=O)C2(CCCC2)NC(=O)[C@@H]2CCCN2C(=O)[C@H](CCc2ccc(C(F)(F)F)c(Cl)c2)NC(=O)CN(C)C(=O)[C@H](CC2CCCCC2)N(C)C(=O)[C@@H]2CCN2C(=O)[C@H](COCC(=O)NC(C)(C)C)N(C)C1=O` [Compound 998] ([NMeL]I[NMeS](CH2CONHtBu)[Aze][NMeCha][Sar][hPhe(3-Cl-4-CF3)]P[Ac5c][NMeV][NMeD]-Piperidide; lactam N-11), the IC50 is reported as 17 nM. `CC[C@H](C)[C@@H]1NC(=O)[C@H](CC(C)C)N(C)C(=O)C[C@@H](C)N(C)C(=O)[C@H]([C@@H](C)CC)N(C)C(=O)C2(CCCC2)NC(=O)[C@@H]2CC(F)(F)CN2C(=O)[C@H](CCc2ccc(C(F)(F)F)c(Cl)c2)NC(=O)CN(C)C(=O)[C@H](Cc2ccc(C(F)(F)F)cc2)N(C)C(=O)CN(C)C(=O)CN(C)C1=O` [Compound 1003] (cyclo([Ac5c][NMeI][NMedβ3hAla][NMeL]I[Sar][Sar][NMePhe(4-CF3)][Sar][hPhe(3-Cl-4-CF3)][Pro(4,4-F2)])) gave an IC50 of 8.4 nM. `CC[C@H](C)[C@@H]1NC(=O)CCNC(=O)[C@H](Cc2ccccc2)N(C)C(=O)[C@H](C2CCCCC2)N(C)C(=O)C2(CCCC2)NC(=O)[C@@H]2CCCN2C(=O)[C@H](CCc2ccc(C(F)(F)F)c(Cl)c2)NC(=O)CN(C)C(=O)[C@H](CC2CCCCC2)N(C)C(=O)CN(C)C(=O)CN(C)C1=O` [Compound 1007] (cyclo([Ac5c][NMeChg][NMeF][βAla]I[Sar][Sar][NMeCha][Sar][hPhe(3-Cl-4-CF3)]P)) gave an IC50 of 13 nM. In the case of `CC[C@H](C)[C@@H]1NC(=O)[C@H](CC(C)C)N(C)C(=O)C[C@@H](C(=O)N(C)C)N(C)C(=O)[C@H](C2CCCC2)N(C)C(=O)C2(CCCC2)NC(=O)[C@H](Cc2ccccc2Cl)N(C)C(=O)[C@H](CCc2ccc(C(F)(F)F)c(Cl)c2)NC(=O)CN(C)C(=O)[C@H](CC2CCCCC2)N(C)C(=O)[C@@H]2CCN2C(=O)[C@H](C)N(C)C1=O` [Compound 1009] ([NMeL]I[NMeA][Aze][NMeCha][Sar][hPhe(3-Cl-4-CF3)][NMePhe(2-Cl)][Ac5c][NMeGly(cPent)][NMeD]-NMe2; lactam N-11), the IC50 is reported as 43 nM. With `CC[C@H](C)[C@@H]1NC(=O)[C@H](CC(C)C)N(C)C(=O)C[C@@H](C)NC(=O)[C@H](CC(C)C)N(C)C(=O)C(C)(C)NC(=O)[C@@H]2CCCN2C(=O)[C@H](CCc2ccc(C(F)(F)F)cc2)NC(=O)CN(C)C(=O)[C@H](Cc2ccc(Cl)cc2)N(C)C(=O)CN(C)C(=O)CN(C)C1=O` [Compound 1013] (cyclo([Aib][NMeL][d(β3hA)][NMeL]I[Sar][Sar][NMePhe(4-Cl)][Sar][hPhe(4-CF3)]P)) the IC50 was 31 nM.
